Measured values taken from patent US11324803B2, “Methods and compositions for treatment of Gaucher Disease via modulation of C5a receptor” (Children's Hospital Medical Center, priority 2015, dated 2022).

Legend:
GCase = molecular target: T1, GCase (Mus musculus, UniProt P17439); assay: CBE-induced GCase deficiency (pharmacologically-induced Gaucher disease) in mice; assay type: in vivo
T1 construct: endogenous in cells; host or cells: WT, C5aR1-/-, C5aR2-/-, Fcer1g-/- and Fcgr2b-/- mice, in vivo
T1 sequence (P17439 20-515): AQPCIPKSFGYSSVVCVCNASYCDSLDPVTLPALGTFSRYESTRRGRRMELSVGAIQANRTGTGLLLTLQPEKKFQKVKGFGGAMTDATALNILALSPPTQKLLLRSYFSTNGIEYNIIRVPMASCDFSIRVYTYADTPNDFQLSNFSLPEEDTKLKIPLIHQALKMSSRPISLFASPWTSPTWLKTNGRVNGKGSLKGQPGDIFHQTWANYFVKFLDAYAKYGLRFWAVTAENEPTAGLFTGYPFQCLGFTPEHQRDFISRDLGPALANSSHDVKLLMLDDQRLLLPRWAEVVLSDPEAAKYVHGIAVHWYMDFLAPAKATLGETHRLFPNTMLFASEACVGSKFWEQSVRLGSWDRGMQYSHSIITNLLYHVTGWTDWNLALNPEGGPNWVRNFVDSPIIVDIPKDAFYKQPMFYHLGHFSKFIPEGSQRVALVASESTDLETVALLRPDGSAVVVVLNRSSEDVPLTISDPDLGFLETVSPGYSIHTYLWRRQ
Excerpt: Sera from human patients with Gaucher disease (n=10) and healthy volunteers (n=15) were from the freezer and de-identified. Human patients with Gaucher disease were diagnosed at Cincinnati Children's Hospital Medical Center (CCHMC). […] The study was approved by the ethics committee at CCHMC. In vivo C5aR1 deficiency or blockade in 9V/null mice and in a CBE-induced mouse model of Gaucher disease. To assess the impact of genetic or pharmacological targeting of C5aR1 on the inflammatory response in Gaucher disease, WT (n=10) and C5aR1^−/− mice (n=10) were treated with conduritol B epoxide (CBE), which is an irreversible inhibitor of acid β-glucosidase^24. More specifically, both mouse strains were injected intraperitoneally (i.p.) with 100 mg CBE/kg body weight or vehicle (PBS)/day for up to 60 days, which was the termination point of these experiments. After 60 days of the indicated treatment with CBE, immune cells (MΦs, DCs, and T cells) were purified from lung of these mouse strains and used for measurement of GC, costimulatory molecules, and several of the pro-inflammatory cytokines. In additional experiments, WT (n=15) or 9V/null mice (n=15) were injected with 100 μl of the C5aR antagonist A8^Δ71-73 (i.p. 0.5 mg/kg) or vehicle (100 μl, PBS) on five consecutive days. Five days after the final C5aRA treatment, liver, spleen and lung were separated and measured for GC accumulation. Further, DCs and CD4^+ T cells were purified from the lung of the indicated mouse strains and measured for costimulatory molecule expression and the production of pro-inflammatory cytokines. Preparation of tissue cells. Liver, spleen, lung and BM were harvested aseptically. Single cell suspensions from liver and lung were obtained from minced pieces that were treated with Liberase Cl (0.5 mg/mL) and DNase (0.5 mg/mL) in RPMI (45 min, 37° C.). Single cell suspensions from spleen were obtained by grinding and then filtration through a 70-micron cell strainer. […] For BM cells, femurs, tibias and humeri were flushed with sterile phosphate buffered saline (PBS), followed by RBC lysis (155 mM NH4Cl, 10 mM NaHCO3, 0.1 mM EDTA), passage through a strainer. Cells were then pelleted by centrifugation at 350×g. Viable cells were counted using a Neubauer chamber and trypan blue exclusion. DCs, MΦs, and CD4^+ T lymphocytes were purified from single cell suspensions of liver, spleen, and lung using CD11c, CD11b, and CD4 (L3T4) microbeads according to the manufacturer's protocol. The purity of the cells was ˜90%-95%.
To determine levels of IgG antibodies to GC or GS in mice and human Gaucher patients, 10 μg of GC or GS were dissolved in 1 ml of methanol and water to a final concentration of 10 μg/ml. One hundred microliters of this GC solution (1 μg/well) were used to coat a 96 well ELISA plate. In case of GS, plates were first filled with 300 µl of poly L lysine solution (0.1 mg/ml). After 10 minutes, excess solution was removed and plates were thoroughly rinsed with sterile water and allowed to dry for several hours. Such plates were then coated with 100 μl of indicated GS solution (1 μg/well). Both of these GC and GS coated plates were kept overnight at room temperature followed by three washings with PBS containing 1% Tween-20 (PBST). Test sera (100 μl; 1:100) isolated from WT (n=15) and 9V/null mice (n=15), CBE-treated (n=10) and untreated WT mice (n=10), as well as healthy humans (n=15) and untreated Gaucher disease patients (n=10), and control antibodies to GC were loaded into the lipid-coated wells followed by incubation for 1.5 hours at RT. […]

C5a receptor 1 = molecular target: T2, C5a receptor 1 (Rattus norvegicus, UniProt P97520); settings: introduced orally; cited from earlier work
T2 construct: host or cells: rats, in vivo
T2 sequence (P97520 1-352): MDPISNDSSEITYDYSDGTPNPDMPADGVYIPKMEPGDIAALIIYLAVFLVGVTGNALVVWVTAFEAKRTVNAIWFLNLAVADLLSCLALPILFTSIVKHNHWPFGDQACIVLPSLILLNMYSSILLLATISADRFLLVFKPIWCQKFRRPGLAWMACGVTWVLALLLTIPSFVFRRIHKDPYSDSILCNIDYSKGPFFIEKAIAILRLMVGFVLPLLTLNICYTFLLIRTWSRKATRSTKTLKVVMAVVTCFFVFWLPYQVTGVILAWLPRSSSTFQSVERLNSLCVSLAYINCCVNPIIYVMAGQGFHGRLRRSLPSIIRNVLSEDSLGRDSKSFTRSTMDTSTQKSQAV

DCs and CD4+ T cells [1] = assay: DC / CD4+ T cell co-culture with C5a: cytokine production by ELISA; assay type: cell-based, mouse; settings: cells from 9V/null mice vs WT, C5a 32 nM, 48 h co-culture
Experimental: (§1) To assess the GC-induced C5a influence on alteration in costimulatory molecules, DCs and CD4^+ T cells purified from lung of 9V/null and background matched WT mice (n=15, each group) were stimulated ex vivo in the presence and absence of different concentration of C5a (0,8,16, and 32 nM) for 24 hours at 37° C. DCs and CD4^+ T cells were purified liver, spleen, and lung of CBE-induced chemical model of Gaucher disease in C5aR1^−/− (n=10) and background-matched WT mice (n=10). These DCs were used to perform FACS staining with antibodies to CD40, CD80, and CD86, whereas CD4^+T cells were used to perform FACS staining with antibodies to CD40L and CD69. To assess the GC induced C5a impact on cytokines and chemokines production, DCs and CD4^+T cells (1:2.5 ratio) purified from lung of 9V/null (n=15) and background-matched WT mice (n=15) were co cultured in the presence and absence of C5a (32 nM) for 48 hours in complete medium. In additional experiments, indicated ratios ([…]) of DCs and CD4^+T cells purified from lung of CBE treated and untreated WT and C5aR1^−/− mice (n=10/each group) were co-cultured for 48 hrs in complete medium. Supernatant of these experiments were used to measure […], TNF-α, IL-1β, IL-6, IL-12p40, IL-12p70, IL-23, IL-17A/F and IL-23 by ELISA. […]

DCs and CD4+ T cells [2] = assay: C5a stimulation of DCs and CD4+ T cells: co-stimulatory molecule expression; assay type: cell-based, mouse; settings: WT and 9V/null cells, C5a 0, 8, 16, 32 nM, 24 h
Experimental: as §1

[3] = WT mice treated for 30 days with CBE vs PBS

**Q.** With `O[C@H]1[C@H](O)[C@@H](O)[C@@H]2O[C@@H]2[C@@H]1O` (racemic) [CBE, conduritol B epoxide] as the molecule, how does the “survival after daily injections of CBE for 60 days” value (GCase; C5aR1−/− mice, 100 mg CBE/kg/day i.p.) read?
**A.** The value was “survived”.

**Q.** What about the “time of death under daily CBE injections” value (GCase; C5aR2−/− mice, 100 mg CBE/kg/day i.p.) of the same molecule?
**A.** The value was 29 to 35 days.

**Q.** What about the “time of death under daily CBE injections” value (GCase; Fcer1g−/− mice, 100 mg CBE/kg/day i.p.) of the same molecule?
**A.** Its value is 29 to 36 days.

**Q.** What about the “time of death under daily CBE injections” value (GCase; Fcgr2b−/− mice, 100 mg CBE/kg/day i.p.) of the same molecule?
**A.** The value was 29 to 36 days.

**Q.** What about the “serum levels of C5a” value (GCase; [3]) of the same molecule?
**A.** Its value is “elevated”.

**Q.** And the “serum levels of IgG2a and IgG2b antibodies to GC” value (GCase; [3])?
**A.** The value was “significantly elevated”.

**Q.** What about the “time of death under daily CBE injections” value (GCase; WT mice, 100 mg CBE/kg/day i.p.) of the same molecule?
**A.** Its value is 29 to 35 days.

**Q.** For AcF-[OP(D-Cha)WR], which “effect in rat models of acute inflammation” value (from here on “effect in rat models”) (C5a receptor 1) is on record?
**A.** The value was “beneficial”.

**Q.** Which “effect in rat models” value (C5a receptor 1) does the source give for HC-[OP(D-Cha)WR] here?
**A.** Its value is “beneficial”.

**Q.** With PMX53 as the molecule, how does the “effect in rat models” value (C5a receptor 1) read?
**A.** The value was “beneficial”.

B1: C5a: small peptide of the complement anaphylatoxin family, cleaved from C5 (protein, UniProt P01031 678-751, looked up)
C5a anaphylatoxin: TLQKKIEEIAAKYKHSVVKKCCYDGACVNNDETCEQRAARISLGPRCIKAFTECCVVASQLRANISHKDMQLGR
modifications: C5a anaphylatoxin
notes: small peptide of the complement anaphylatoxin family, cleaved from C5
**Q.** With B1 as the molecule, how does the “production of IFN-γ, TNF-α, IL-1β, IL-6, and IL-17” value (DCs and CD4+ T cells [1]) read?
**A.** Its value is “dramatically increased”.

**Q.** What about the “expression levels of CD40, CD80, CD86 and CD40L and CD69” value (DCs and CD4+ T cells [2]) of the same molecule?
**A.** Its value is “increased”.
